Assays:
wild poinsettia = test: Test E postemergence; type: in vivo, Euphorbia heterophylla
Description: (§1) Seeds of plant species selected from corn (Zea mays), soybean (Glycine max), velvetleaf (Abutilon theophrasti), lambsquarters (Chenopodium album), wild poinsettia (Euphorbia heterophylla), palmer pigweed (Amaranthus palmeri), waterhemp (common waterhemp, Amaranthus rudis), surinam grass (Brachiaria decumbens), large (Lg) crabgrass (Digitaria sanguinalis), Brazilian crabgrass (Digitaria horizontalis), fall panicum (Panicum dichotomiflorum), giant foxtail (Setaria faberii), green foxtail (Setaria viridis), goosegrass (Eleusine indica), johnsongrass (Sorghum halepense), ragweed (common ragweed, Ambrosia elatior), barnyardgrass (Echinochloa crus-galli), sandbur (southern sandbur, Cenchrus echinatus), arrowleaf sida (Sida rhombifolia), Italian ryegrass (Lolium multiflorum), dayflower (Virginia (VA) dayflower, Commelina virginica), field bindweed (Convolvulus arvensis), morningglory (Ipomoea coccinea), nightshade (eastern black nightshade, Solanum ptycanthum), kochia (Kochia scoparia), yellow nutsedge (Cyperus esculentus), cocklebur (common cocklebur, Xanthium strumarium), smartweed (ladysthumb smartweed, and hairy beggarticks (Bidens pilosa), were planted into a silt loam soil and treated preemergence with test chemicals formulated in a non-phytotoxic solvent mixture which included a surfactant.
(§2) At the same time, plants from these crop and weed species and also horseweed (Canada horseweed, Conyza canadensis), waterhemp_RES1, (ALS & Triazine resistant common waterhemp, Amaranthus rudis), and waterhemp_RES2, (ALS & HPPD resistant common waterhemp, Amaranthus rudis) were planted in pots containing Redi-Earth® planting medium (Scotts Company, 14111 Scottslawn Road, Marysville, Ohio 43041) comprising spaghnum peat moss, vermiculite, wetting agent and starter nutrients were treated with postemergence applications of test chemicals formulated in the same manner. Plants ranged in height from 2 to 18 cm for postemergence treatments (1- to 4-leaf stage). Treated plants and controls were maintained in a greenhouse for 14 to 21 days, after which time all species were compared to controls and visually evaluated. Plant response ratings, summarized in Table E, are based on a scale of 0 to 100 where 0 is no effect and 100 is complete control. A dash (-) response means no test result.

Brazilian crabgrass = test: Test E postemergence; type: in vivo, Digitaria horizontalis
Description: as §1, §2

field bindweed = test: Test E postemergence; type: in vivo, Convolvulus arvensis
Description: as §1, §2

speedwell = test: Test D postemergence; type: in vivo, Veronica persica
Procedure, shortened: (§3)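 Values are 0–100 visual control ratings (0 none, 100 complete) given 7–21 days after application. Soil for preemergence was silt loam; postemergence plants stood 2–18 cm tall.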

chamomile = test: Test D postemergence; type: in vivo, Matricaria inodora
Procedure, shortened: as §3

wild mustard = test: Test D preemergence; type: in vivo, Sinapis arvensis
Procedure, shortened: as §3

oilseed rape = test: Test D postemergence; type: in vivo, Brassica napus
Procedure, shortened: as §3

bromegrass, downy = test: Test D postemergence; type: in vivo, Bromus tectorum; conditions: Postemergence, scale 0 to 100 (0 no effect, 100 complete control)
Procedure, shortened: as §3

spring barley = test: Test D postemergence; type: in vivo, Hordeum vulgare; conditions: Postemergence, scale 0 to 100 (0 no effect, 100 complete control)
Procedure, shortened: as §3

winter barley = test: Test D postemergence; type: in vivo, Hordeum vulgare; conditions: Postemergence, scale 0 to 100 (0 no effect, 100 complete control)
Procedure, shortened: as §3

windgrass = test: Test D preemergence; type: in vivo, Apera spica-venti
Procedure, shortened: as §3

field poppy = test: Test D preemergence; type: in vivo, Papaver rhoeas
Procedure, shortened: as §3

wild buckwheat = test: Test D preemergence; type: in vivo, Polygonum convolvulus
Procedure, shortened: as §3

[1] = Postemergence, 31 g ai/ha, scale 0 to 100
[2] = Postemergence, 62 g ai/ha, scale 0 to 100
[3] = Postemergence, 125 g ai/ha, scale 0 to 100
[4] = Postemergence, 250 g ai/ha, scale 0 to 100
[5] = postemergence, 16 g ai/ha, scale 0 to 100, 0 no effect, 100 complete control
[6] = postemergence, 8 g ai/ha, scale 0 to 100, 0 no effect, 100 complete control
[7] = 62 g ai/ha, scale 0 to 100 (0 no effect, 100 complete control)
[8] = 125 g ai/ha, scale 0 to 100 (0 no effect, 100 complete control)
[9] = 250 g ai/ha, scale 0 to 100 (0 no effect, 100 complete control)
[10] = 31 g ai/ha, scale 0 (no effect) to 100 (complete control)

Fc1cnc(Oc2ccccc2-n2cc(Br)cn2)nc1 [Compound 10, 2-[2-(4-bromo-1H-pyrazol-1-yl)phenoxy]-5-fluoropyrimidine]
pest or weed control at 31 g/ha (wild poinsettia; Euphorbia heterophylla, post-emergence, Postemergence, 31 g ai/ha, scale 0 to 100, read-out: Plant response rating, Poinsettia, Wild): 20%
pest or weed control at 62 g/ha (wild poinsettia; Euphorbia heterophylla, post-emergence, Postemergence, 62 g ai/ha, scale 0 to 100, read-out: Plant response rating, Poinsettia, Wild): 30%
pest or weed control at 125 g/ha (wild poinsettia; Euphorbia heterophylla, post-emergence, Postemergence, 125 g ai/ha, scale 0 to 100, read-out: Plant response rating, Poinsettia, Wild): 30%
pest or weed control at 250 g/ha (wild poinsettia; Euphorbia heterophylla, post-emergence, Postemergence, 250 g ai/ha, scale 0 to 100, read-out: Plant response rating, Poinsettia, Wild): 60%
pest or weed control at 16 g/ha (wild poinsettia; Euphorbia heterophylla, post-emergence, postemergence, 16 g ai/ha, scale 0 to 100, 0 no effect, 100 complete control, read-out: Plant response rating, Poinsettia, Wild): 5%
pest or weed control at 31 g/ha (Brazilian crabgrass; Digitaria horizontalis, post-emergence, Postemergence, 31 g ai/ha, scale 0 to 100, read-out: Plant response rating, Crabgrass, Brazil): 0%
pest or weed control at 62 g/ha (Brazilian crabgrass; Digitaria horizontalis, post-emergence, Postemergence, 62 g ai/ha, scale 0 to 100, read-out: Plant response rating, Crabgrass, Brazil): 0%
pest or weed control at 125 g/ha (Brazilian crabgrass; Digitaria horizontalis, post-emergence, Postemergence, 125 g ai/ha, scale 0 to 100, read-out: Plant response rating, Crabgrass, Brazil): 0%
pest or weed control at 250 g/ha (Brazilian crabgrass; Digitaria horizontalis, post-emergence, Postemergence, 250 g ai/ha, scale 0 to 100, read-out: Plant response rating, Crabgrass, Brazil): 5%
pest or weed control at 16 g/ha (Brazilian crabgrass; Digitaria horizontalis, post-emergence, postemergence, 16 g ai/ha, scale 0 to 100, 0 no effect, 100 complete control, read-out: Plant response rating, Crabgrass, Brazil): 0%
pest or weed control at 31 g/ha (field bindweed; Convolvulus arvensis, post-emergence, Postemergence, 31 g ai/ha, scale 0 to 100, read-out: Plant response rating, Field Bindweed): 30%
pest or weed control at 62 g/ha (field bindweed; Convolvulus arvensis, post-emergence, Postemergence, 62 g ai/ha, scale 0 to 100, read-out: Plant response rating, Field Bindweed): 30%
pest or weed control at 125 g/ha (field bindweed; Convolvulus arvensis, post-emergence, Postemergence, 125 g ai/ha, scale 0 to 100, read-out: Plant response rating, Field Bindweed): 40%
pest or weed control at 250 g/ha (field bindweed; Convolvulus arvensis, post-emergence, Postemergence, 250 g ai/ha, scale 0 to 100, read-out: Plant response rating, Field Bindweed): 50%
pest or weed control at 16 g/ha (field bindweed; Convolvulus arvensis, post-emergence, postemergence, 16 g ai/ha, scale 0 to 100, 0 no effect, 100 complete control, read-out: Plant response rating, Field Bindweed): 15%

FC(F)(F)c1cnn(-c2ccccc2Oc2ncc(Cl)cn2)c1 [Compound 16]
Plant response rating, Poinsettia, Wild (wild poinsettia; [1]): 60
Plant response rating, Poinsettia, Wild (wild poinsettia; [2]): 60
Plant response rating, Poinsettia, Wild (wild poinsettia; [3]): 70
Plant response rating, Poinsettia, Wild (wild poinsettia; [4]): 80
Plant response rating, Poinsettia, Wild (wild poinsettia; [5]): 50
Plant response rating, Crabgrass, Brazil (Brazilian crabgrass; [1]): 0
Plant response rating, Crabgrass, Brazil (Brazilian crabgrass; [2]): 10
Plant response rating, Crabgrass, Brazil (Brazilian crabgrass; [3]): 30
Plant response rating, Crabgrass, Brazil (Brazilian crabgrass; [4]): 40
Plant response rating, Crabgrass, Brazil (Brazilian crabgrass; [5]): 0
Plant response rating, Field Bindweed (field bindweed; [1]): 30
Plant response rating, Field Bindweed (field bindweed; [2]): 40
Plant response rating, Field Bindweed (field bindweed; [3]): 50
Plant response rating, Field Bindweed (field bindweed; [4]): 60
Plant response rating, Field Bindweed (field bindweed; [5]): 10

Clc1cnc(Oc2cccc(Br)c2-n2cc(Br)cn2)nc1 [Compound 65]
Plant response rating, Poinsettia, Wild (wild poinsettia; [1]): 20
Plant response rating, Poinsettia, Wild (wild poinsettia; [2]): 20
Plant response rating, Poinsettia, Wild (wild poinsettia; [3]): 40
Plant response rating, Poinsettia, Wild (wild poinsettia; [6]): 15
Plant response rating, Poinsettia, Wild (wild poinsettia; [5]): 20
Plant response rating, Crabgrass, Brazil (Brazilian crabgrass; [1]): 10
Plant response rating, Crabgrass, Brazil (Brazilian crabgrass; [2]): 10
Plant response rating, Crabgrass, Brazil (Brazilian crabgrass; [3]): 15
Plant response rating, Crabgrass, Brazil (Brazilian crabgrass; [6]): 0
Plant response rating, Crabgrass, Brazil (Brazilian crabgrass; [5]): 0
Plant response rating, Field Bindweed (field bindweed; [1]): 20
Plant response rating, Field Bindweed (field bindweed; [2]): 40
Plant response rating, Field Bindweed (field bindweed; [3]): 40
Plant response rating, Field Bindweed (field bindweed; [6]): 0
Plant response rating, Field Bindweed (field bindweed; [5]): 10

N#Cc1cccc(Oc2ncc(Cl)cn2)c1-n1cc(-n2ccc(C(F)(F)F)n2)cn1 [Compound 284]
Plant response rating, Speedwell (speedwell; 31 g ai/ha, scale 0-100): 70
Plant response rating, Speedwell (speedwell; [7]): 75
Plant response rating, Speedwell (speedwell; [8]): 100
Plant response rating, Speedwell (speedwell; [9]): 100
Plant response rating, Chamomile (chamomile; 31 g ai/ha, scale 0-100): 0
Plant response rating, Chamomile (chamomile; [7]): 0
Plant response rating, Chamomile (chamomile; [8]): 10
Plant response rating, Chamomile (chamomile; [9]): 10
Plant response rating, Mustard, Wild (wild mustard; [10]): 15
Plant response rating, Mustard, Wild (wild mustard; 62 g ai/ha, scale 0-100): 15
Plant response rating, Mustard, Wild (wild mustard; 125 g ai/ha, scale 0-100): 90
Plant response rating, Mustard, Wild (wild mustard; 250 g ai/ha, scale 0-100): 100
Plant response rating, Oilseed Rape (oilseed rape; 31 g ai/ha, scale 0-100): 65
Plant response rating, Oilseed Rape (oilseed rape; [7]): 70
Plant response rating, Oilseed Rape (oilseed rape; [8]): 100
Plant response rating, Oilseed Rape (oilseed rape; [9]): 100
Plant response rating, Bromegrass, Downy (bromegrass, downy; 62 g ai/ha): 40
Plant response rating, Bromegrass, Downy (bromegrass, downy; 31 g ai/ha): 30
Plant response rating, Bromegrass, Downy (bromegrass, downy; 125 g ai/ha): 45
Plant response rating, Bromegrass, Downy (bromegrass, downy; 250 g ai/ha): 45
Plant response rating, Barley, Spring (spring barley; 62 g ai/ha): 15
Plant response rating, Barley, Spring (spring barley; 31 g ai/ha): 5
Plant response rating, Barley, Spring (spring barley; 125 g ai/ha): 20
Plant response rating, Barley, Spring (spring barley; 250 g ai/ha): 25
Plant response rating, Barley, Winter (winter barley; 62 g ai/ha): 15
Plant response rating, Barley, Winter (winter barley; 31 g ai/ha): 15
Plant response rating, Barley, Winter (winter barley; 125 g ai/ha): 20
Plant response rating, Barley, Winter (winter barley; 250 g ai/ha): 25
Plant response rating, Windgrass (windgrass; [10]): 20
Plant response rating, Windgrass (windgrass; 125 g ai/ha, scale 0-100): 45
Plant response rating, Windgrass (windgrass; 250 g ai/ha, scale 0-100): 55
Plant response rating, Field Poppy (field poppy; [10]): 100
Plant response rating, Field Poppy (field poppy; 62 g ai/ha, scale 0-100): 100
Plant response rating, Field Poppy (field poppy; 125 g ai/ha, scale 0-100): 100
Plant response rating, Field Poppy (field poppy; 250 g ai/ha, scale 0-100): 100
Plant response rating, Buckwheat, Wild (wild buckwheat; [10]): 10
Plant response rating, Buckwheat, Wild (wild buckwheat; 62 g ai/ha, scale 0-100): 20
Plant response rating, Buckwheat, Wild (wild buckwheat; 125 g ai/ha, scale 0-100): 70
Plant response rating, Buckwheat, Wild (wild buckwheat; 250 g ai/ha, scale 0-100): 100

Reference: US9695155B2, “Herbicidal substituted pyrimidinyloxy benzene compounds” (E. I. DU PONT DE NEMOURS AND COMPANY, priority 2013, dated 2017)
